According to ChEMBL document CHEMBL1158330, “Two new puriniums and three new pyrimidines from Heterostemma brownii” (J Nat Prod, 1997):

How the values were obtained:
[1] = test system: MOLT-4; assay: Cytotoxicity against human MOLT4 cells at 1 uM after 72 hrs by MTT assay relative to control; type: functional; details: MOLT-4, 72 h
[2] = Cytotoxicity against human HCE6 cells after 72 hrs by MTT assay; type: functional, cell-based; details: HCE6, 72 h
[3] = test system: HL-60; assay: Cytotoxicity against human HL60 cells at 1000 uM after 72 hrs by MTT assay relative to control; type: functional; details: HL-60, 72 h
[4] = test system: HL-60; assay: Cytotoxicity against human HL60 cells at 1 uM after 72 hrs by MTT assay relative to control; type: functional; details: HL-60, 72 h
[5] = test system: Huh-7; assay: Cytotoxicity against human HuH7 cells at 1 uM after 72 hrs by MTT assay relative to control; type: functional; details: Huh-7, 72 h
[6] = test system: Huh-7; assay: Cytotoxicity against human HuH7 cells at 100 nM after 72 hrs by MTT assay relative to control; type: functional; details: Huh-7, 72 h
[7] = test system: K562; assay: Cytotoxicity against human K562 cells at 1000 uM after 72 hrs by MTT assay relative to control; type: functional; details: K562, 72 h
[8] = test system: HL-60; assay: Cytotoxicity against human HL60 cells at 100 nM after 72 hrs by MTT assay relative to control; type: functional; details: HL-60, 72 h
[9] = test system: K562; assay: Cytotoxicity against human K562 cells at 100 nM after 72 hrs by MTT assay relative to control; type: functional; details: K562, 72 h
[10] = test system: MOLT-4; assay: Cytotoxicity against human MOLT4 cells at 1000 uM after 72 hrs by MTT assay relative to control; type: functional; details: MOLT-4, 72 h
[11] = Cytotoxicity against human HCE6 cells at 1 uM after 72 hrs by MTT assay relative to control; type: functional; details: HCE6, 72 h
[12] = test system: HL-60; assay: Cytotoxicity against human HL60 cells at 10 uM after 72 hrs by MTT assay relative to control; type: functional; details: HL-60, 72 h
[13] = test system: Huh-7; assay: Cytotoxicity against human HuH7 cells at 10 uM after 72 hrs by MTT assay relative to control; type: functional; details: Huh-7, 72 h
[14] = test system: K562; assay: Cytotoxicity against human K562 cells at 1 uM after 72 hrs by MTT assay relative to control; type: functional; details: K562, 72 h
[15] = test system: Huh-7; assay: Cytotoxicity against human HuH7 cells at 1000 uM after 72 hrs by MTT assay relative to control; type: functional; details: Huh-7, 72 h
[16] = Cytotoxicity against human HCE6 cells at 100 nM after 72 hrs by MTT assay; type: functional; details: HCE6, 72 h
[17] = test system: K562; assay: Cytotoxicity against human K562 cells at 100 uM after 72 hrs by MTT assay relative to control; type: functional; details: K562, 72 h
[18] = test system: MOLT-4; assay: Cytotoxicity against human MOLT4 cells after 72 hrs by MTT assay; type: functional, cell-based; details: MOLT-4, 72 h
[19] = Cytotoxicity against human HCE6 cells at 100 uM after 72 hrs by MTT assay relative to control; type: functional; details: HCE6, 72 h
[20] = test system: MOLT-4; assay: Cytotoxicity against human MOLT4 cells at 10 uM after 72 hrs by MTT assay relative to control; type: functional; details: MOLT-4, 72 h
[21] = test system: Huh-7; assay: Cytotoxicity against human HuH7 cells at 100 uM after 72 hrs by MTT assay relative to control; type: functional; details: Huh-7, 72 h
[22] = test system: K562; assay: Cytotoxicity against human K562 cells after 72 hrs by MTT assay; type: functional, cell-based; details: K562, 72 h
[23] = test system: MOLT-4; assay: Cytotoxicity against human MOLT4 cells at 100 nM after 72 hrs by MTT assay relative to control; type: functional; details: MOLT-4, 72 h
[24] = test system: MOLT-4; assay: Cytotoxicity against human MOLT4 cells at 100 uM after 72 hrs by MTT assay relative to control; type: functional; details: MOLT-4, 72 h
[25] = test system: Huh-7; assay: Cytotoxicity against human HuH7 cells after 72 hrs by MTT assay; type: functional, cell-based; details: Huh-7, 72 h
[26] = test system: HL-60; assay: Cytotoxicity against human HL60 cells at 100 uM after 72 hrs by MTT assay relative to control; type: functional; details: HL-60, 72 h
[27] = Cytotoxicity against human HCE6 cells at 10 uM after 72 hrs by MTT assay relative to control; type: functional; details: HCE6, 72 h
[28] = test system: K562; assay: Cytotoxicity against human K562 cells at 10 uM after 72 hrs by MTT assay relative to control; type: functional; details: K562, 72 h
[29] = Cytotoxicity against human HCE6 cells at 1000 uM after 72 hrs by MTT assay relative to control; type: functional; details: HCE6, 72 h
[30] = test system: HL-60; assay: Cytotoxicity against human HL60 cells after 72 hrs by MTT assay; type: functional, cell-based; details: HL-60, 72 h

Row | SMILES | viability at 1 µM [1] [%] | IC50 [2] [µM] | viability at 1000 µM [3] [%] | viability at 1 µM [4] [%] | viability at 1 µM [5] [%] | viability at 0.1 µM [6] [%] | viability at 1000 µM [7] [%] | viability at 0.1 µM [8] [%] | viability at 0.1 µM [9] [%] | viability at 1000 µM [10] [%] | viability at 1 µM [11] [%] | viability at 10 µM [12] [%] | viability at 10 µM [13] [%] | viability at 1 µM [14] [%] | viability at 1000 µM [15] [%] | viability at 0.1 µM [16] [%] | viability at 100 µM [17] [%] | IC50 [18] [µM] | viability at 100 µM [19] [%] | viability at 10 µM [20] [%] | other results
1 | COc1nc(N(C)C)nc2c1[n+](C)cn2C [HETEROMINE A] | 90.7 | 4.08 | 5.7 | 99.3 | 102 | 97.3 | 5.9 | 94.5 | 94.3 | 5.6 | 87.4 | 42.7 | 91.1 | 107 | 11.1 | 92.4 | 33.5 | 14.4 | 8.2 | 54.8 | viability at 100 µM [21]: 43.1%; IC50 [22]: 9.88 µM; viability at 0.1 µM [23]: 94.7%; viability at 100 µM [24]: 24.8%; IC50 [25]: 71.8 µM; viability at 100 µM [26]: 8.2%; viability at 10 µM [27]: 26.2%; viability at 10 µM [28]: 49.7%; viability at 1000 µM [29]: 1.7%; IC50 [30]: 7.43 µM
2 | CNc1nc(OC)c2c(n1)n(C)c[n+]2C [HETEROMINE B] | 91 | 36 | 14.9 | 99.1 | 103 | 104 | 27.6 | 114 | 96.8 | 17.4 | 82.2 | 72.6 | 94.3 | 95.5 | 28.8 | 82.2 | 40.4 | 52.3 | 22.1 | 86 | viability at 100 µM [21]: 92.5%; IC50 [22]: 62.9 µM; viability at 0.1 µM [23]: 107%; viability at 100 µM [24]: 35.9%; IC50 [25]: 464 µM; viability at 100 µM [26]: 20.3%; viability at 10 µM [27]: 85%; viability at 10 µM [28]: 88.2%; viability at 1000 µM [29]: 10.6%; IC50 [30]: 27 µM
